Source: ChEMBL document CHEMBL3046079, “Synthesis, herbicidal activity, and mode of action of IR 5790” (J Agric Food Chem, 2001)
Activity calls are given as the source filed them. The calls are words filed in the database; no cut-off is given here.

How the values were obtained:
[1] = system: Sorghum bicolor; experiment: Pre-emergence herbicidal activity against Sorghum bicolor assessed as injury at 50 g/ha applied at 24 hr post-sowing measured after 28 days relative to control; assay type: functional
[2] = system: Persicaria maculosa; experiment: Post-emergence herbicidal activity against Persicaria maculosa assessed as injury at 15 g/ha applied at 15 days post-sowing measured after 15 days relative to control; assay type: functional
[3] = system: Sorghum bicolor; experiment: Post-emergence herbicidal activity against Sorghum bicolor assessed as injury at 15 g/ha applied at 15 days post-sowing measured after 15 days relative to control; assay type: functional
[4] = system: Alopecurus myosuroides; experiment: Post-emergence herbicidal activity against Alopecurus myosuroides assessed as injury at 50 g/ha applied at 15 days post-sowing measured after 15 days relative to control; assay type: functional
[5] = system: Panicum dichotomiflorum; experiment: Post-emergence herbicidal activity against Panicum dichotomiflorum assessed as injury at 15 g/ha applied at 15 days post-sowing measured after 15 days relative to control; assay type: functional
[6] = system: Gossypium hirsutum; experiment: Phytotoxicity against Gossypium hirsutum (cotton) assessed as injury at 150 g/ha applied as post-emergent treatment at 15 days post-sowing measured after 15 days relative to control; assay type: organism-based; conditions: in vivo, other, 360 h
[7] = system: Cucumis sativus; experiment: Induction of photobleaching in Cucumis sativus (cucumber) cotyledon disc at 1 to 100 uM incubated for 20 hr in dark followed by 8 hr in presence of light; assay type: functional
[8] = system: Papaver rhoeas; experiment: Pre-emergence herbicidal activity against Papaver rhoeas assessed as injury at 150 g/ha applied at 24 hr post-sowing measured after 28 days relative to control; assay type: functional
[9] = system: Oryza sativa; experiment: Phytotoxicity against Oryza sativa (rice) assessed as injury at 150 g/ha applied as post-emergent treatment at 15 days post-sowing measured after 15 days relative to control; assay type: organism-based; conditions: in vivo, other, 360 h
[10] = system: Ipomoea purpurea; experiment: Pre-emergence herbicidal activity against Ipomoea purpurea (common morning-glory) assessed as injury at 50 g/ha applied at 24 hr post-sowing measured after 28 days relative to control; assay type: functional
[11] = system: Panicum dichotomiflorum; experiment: Pre-emergence herbicidal activity against Panicum dichotomiflorum assessed as injury at 150 g/ha applied at 24 hr post-sowing measured after 28 days relative to control; assay type: functional
[12] = system: Solanum nigrum; experiment: Pre-emergence herbicidal activity against Solanum nigrum (black nightshade) assessed as injury at 50 g/ha applied at 24 hr post-sowing measured after 28 days relative to control; assay type: functional
[13] = system: Avena fatua; experiment: Pre-emergence herbicidal activity against Avena fatua assessed as injury at 150 g/ha applied at 24 hr post-sowing measured after 28 days relative to control; assay type: functional
[14] = system: Echinochloa crus-galli; experiment: Pre-emergence herbicidal activity against Echinochloa crus-galli (barnyard grass) assessed as injury at 50 g/ha applied at 24 hr post-sowing measured after 28 days relative to control; assay type: functional
[15] = system: Panicum dichotomiflorum; experiment: Pre-emergence herbicidal activity against Panicum dichotomiflorum assessed as injury at 50 g/ha applied at 24 hr post-sowing measured after 28 days relative to control; assay type: functional
[16] = system: Oryza sativa; experiment: Phytotoxicity against Oryza sativa (rice) assessed as injury at 150 g/ha applied as pre-emergent treatment at 24 hr post-sowing measured after 28 days relative to control; assay type: organism-based; conditions: in vivo, other, 672 h
[17] = system: Avena fatua; experiment: Post-emergence herbicidal activity against Avena fatua assessed as injury at 150 g/ha applied at 15 days post-sowing measured after 15 days relative to control; assay type: functional
[18] = system: Portulaca oleracea; experiment: Post-emergence herbicidal activity against Portulaca oleracea assessed as injury at 15 g/ha applied at 15 days post-sowing measured after 15 days relative to control; assay type: functional
[19] = system: Digitaria sanguinalis; experiment: Post-emergence herbicidal activity against Digitaria sanguinalis (hairy crabgrass) assessed as injury at 50 g/ha applied at 15 days post-sowing measured after 15 days relative to control; assay type: functional

Molecule `C#CCOc1cc(-n2nc(C(C)(C)C)sc2=O)c(Cl)cc1Cl` has an Activity [1] of 0%, an Activity [2] of 70% and an Activity [3] of 10%. For the same molecule, the Activity [4] was 30%, the Activity [5] was 0% and the Activity [6] was 70%. For the same molecule, the Activity [7] was “inactive”, the Activity [8] was 90% and the Activity [9] was 0%. It also gave an Activity [10] of 0%, an Activity [11] of 90% and an Activity [12] of 30%. For the same molecule, the Activity [13] was 0%, the Activity [14] was 30% and the Activity [15] was 90%. For the same molecule, the Activity [16] was 0%, the Activity [17] was 30% and the Activity [18] was 70%. It also gave an Activity [19] of 50%.
